pEC50, pIC50: −log10 of the molar value. Like-named read-outs stand apart in the source and are kept apart here.
Tests used:
IRAK4 enzyme = IRAK4 enzyme (Homo sapiens (Human), UniProt Q9NWZ3); assay: biochemical; format: biochemical; settings: IRAK4 enzyme, 500 μM ATP
TNFα = assay: cells; format: cell-based, human; settings: LPS-stimulated human monocytes, read-out: EC50 TNF
[1] = Homo sapiens, Monocyte, TNFα content
[2] = Homo sapiens, Monocyte, TNFα by TR-FRET

Sequence of IRAK4 enzyme (Q9NWZ3 whole entry): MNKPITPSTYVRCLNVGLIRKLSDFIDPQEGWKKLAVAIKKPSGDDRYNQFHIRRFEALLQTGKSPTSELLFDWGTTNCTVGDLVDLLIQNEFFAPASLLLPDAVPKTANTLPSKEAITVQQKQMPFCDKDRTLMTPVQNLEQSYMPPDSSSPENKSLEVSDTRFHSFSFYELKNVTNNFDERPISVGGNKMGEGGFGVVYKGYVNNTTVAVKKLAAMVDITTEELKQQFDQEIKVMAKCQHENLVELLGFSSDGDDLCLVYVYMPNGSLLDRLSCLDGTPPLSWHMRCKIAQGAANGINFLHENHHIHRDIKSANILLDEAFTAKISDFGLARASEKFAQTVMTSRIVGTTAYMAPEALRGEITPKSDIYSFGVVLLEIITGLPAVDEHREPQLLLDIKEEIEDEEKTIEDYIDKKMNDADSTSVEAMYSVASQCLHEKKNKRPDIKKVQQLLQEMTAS

Row | Structure (SMILES) | pIC50 (IRAK4 enzyme; TR-FRET) | pEC50 (TNFα; [1]) | pIC50 (IRAK4 enzyme; TR-FRET (HTRF)) | pEC50 (TNFα; [2]) | pEC50 (TNFα; TNFα content)
1 | CC(C)(O)[C@H](F)CNC(=O)c1cnc(-c2ccc3cc(C#N)cnn23)cc1Nc1cccnc1 [Example 4, (R)-6-(3-cyanopyrrolo[1,2-b]pyridazin-7-yl)-N-(2-fluoro-3-hydroxy-3-methylbutyl)-4-(pyridin-3-ylamino)nicotinamide] | > 9.00 | 7.48 |  |  | 
2 | COC(=O)N[C@]1(C)CC[C@H](Nc2cc(-c3ccc4cc(C#N)cnn34)ncc2C(=O)NC[C@@H](F)C(C)(C)O)CC1 [Example 619, methyl ((1S,4s)-4-((2-(3-cyanopyrrolo[1,2-b]pyridazin-7-yl)-5-(((R)-2-fluoro-3-hydroxy-3-methylbutyl)carbamoyl)pyridin-4-yl)amino)-1-methylcyclohexyl) carbamate] |  | 6.77 | 8.52 |  | 
3 | Cc1cc(Nc2cc(-c3ccc4cc(C#N)cnn34)ncc2C(=O)NC[C@@H](F)C(C)(C)O)ccc1C(N)=O [Example 581, (R)-4-((4-carbamoyl-3-methylphenyl)amino)-6-(3-cyanopyrrolo[1,2-b]pyridazin-7-yl)-N-(2-fluoro-3-hydroxy-3-methylbutyl)nicotinamide] |  | 6.94 | > 9.00 |  | 
4 | CC(=O)N[C@@H]1CC[C@H](Nc2cc(-c3ccc4cc(C#N)cnn34)ncc2C(=O)NC[C@@H](F)C(C)(C)O)C1 [Example 312, 4-(((1S,3R)-3-acetamidocyclopentyl)amino)-6-(3-cyano-pyrrolo[1,2-b]pyridazin-7-yl)-N-((R)-2-fluoro-3-hydroxy-3-methylbutyl) nicotinamide] | 8.70 | 6.70 |  |  | 
5 | CC(C)Nc1cc(-c2ccc3cc(C#N)cnn23)ncc1C(=O)NCCC(C)(N)C(F)(F)F (stereo not shown) [Example 561, N-(3-amino-4,4,4-trifluoro-3-methylbutyl)-6-(3-cyano-pyrrolo[1,2-b]pyridazin-7-yl)-4-(isopropylamino) nicotinamide] |  | 6.92 | 9.00 |  | 
6 | CC(C)(O)[C@H](F)CNC(=O)c1cnc(-c2ccc3cc(C#N)cnn23)cc1NC1CC2(CCN(CC(F)(F)F)C2)C1 (stereo partly drawn) [Example 904, (R)-6-(3-cyanopyrrolo[1,2-b]pyridazin-7-yl)-N-(2-fluoro-3-hydroxy-3-methylbutyl)-4-((6-(2,2,2-trifluoroethyl)-6-aza-spiro[3.4]octan-2-yl)amino)nicotinamide] | 9.00 |  |  | 6.93 | 
7 | CC(C)(O)[C@H](F)CNC(=O)c1cnc(-c2ccc3cc(C#N)cnn23)cc1NC12CCC(F)(CC1)CC2 [Example 503, (R)-6-(3-cyanopyrrolo[1,2-b]pyridazin-7-yl)-N-(2-fluoro-3-hydroxy-3-methylbutyl)-4-((4-fluorobicyclo[2.2.2]octan-1-yl)amino)nicotinamide] |  | 7.34 | 8.70 |  | 
8 | CC1(Nc2cc(-c3ccc4cc(C#N)cnn34)ncc2C(=O)NC[C@@H](F)C(C)(C)O)CC1 [Example 118, (R)-6-(3-cyanopyrrolo[1,2-b]pyridazin-7-yl)-N-(2-fluoro-3-hydroxy-3-methylbutyl)-4-((1-methylcyclopropyl)amino) nicotinamide] | > 9.00 | 7.60 |  |  | 
9 | CC(C)(C)c1cc(Nc2cc(-c3ccc4cc(C#N)cnn34)ncc2C(=O)NC[C@@H](F)C(C)(C)O)on1 [Example 360, (R)-4-((3-(tert-butyl)isoxazol-5-yl)amino)-6-(3-cyanopyrrolo[1,2-b]pyridazin-7-yl)-N-(2-fluoro-3-hydroxy-3-methyl-butyl)nicotinamide] | 8.70 | < 5.00 |  |  | 
10 | CC(C)(O)[C@H](F)CNC(=O)c1cnc(-c2ccc3cc(C#N)cnn23)cc1Nc1ccc(-c2cnco2)nc1 [Example 625, (R)-6-(3-cyanopyrrolo[1,2-b]pyridazin-7-yl)-N-(2-fluoro-3-hydroxy-3-methylbutyl)-4-((6-(oxazol-5-yl)pyridin-3-yl)amino)nicotinamide] |  | 7.66 | > 9.00 |  | 
11 | Cc1ncc(Nc2cc(-c3ccc4cc(C#N)cnn34)ncc2C(=O)NC[C@@H](F)C(C)(C)O)cn1 [Example 595, (R)-6-(3-cyano-pyrrolo[1,2-b]pyridazin-7-yl)-N-(2-fluoro-3-hydroxy-3-methylbutyl)-4-((2-methylpyrimidin-5-yl)amino)nicotinamide] |  | 6.97 | > 9.00 |  | 
12 | N#Cc1cnn2c(-c3cc(NC45CCC(O)(CC4)CC5)c(C(=O)N[C@@H]4CCNC4=O)cn3)ccc2c1 [Example 959, (R)-6-(3-cyanopyrrolo[1,2-b]pyridazin-7-yl)-4-((4-hydroxybicyclo[2.2.2]octan-1-yl)amino)-N-(2-oxo-pyrrolidin-3-yl)nicotinamide] | > 9.00 |  |  | 6.69 | 
13 | Cn1cc(Nc2cc(-c3ccc4cc(C#N)cnn34)ncc2C(=O)NC[C@@H](F)C(C)(C)O)cn1 [Example 47, (R)-6-(3-cyanopyrrolo[1,2-b]pyridazin-7-yl)-N-(2-fluoro-3-hydroxy-3-methylbutyl)-4-((1-methyl-1H-pyrazol-4-yl)amino)nicotinamide] | > 9.00 | 7.43 |  |  | 
14 | CC(C)(O)[C@H](F)CNC(=O)c1cnc(-c2ccc3cc(C#N)cnn23)cc1NC1CCCC(S(C)(=O)=O)C1 (single isomer, unassigned) [Example 516] |  |  | 8.70 |  | 6.23
15 | COC(=O)NC12CCC(Nc3cc(-c4ccc5cc(C#N)cnn45)ncc3C(=O)NC[C@@H](F)C(C)(C)O)(CC1)CC2 [Example 311, (R)-methyl (4-((2-(3-cyano-pyrrolo[1,2-b]pyridazin-7-yl)-5-((2-fluoro-3-hydroxy-3-methylbutyl)carbamoyl)pyridin-4-yl)amino)bicyclo[2.2.2]octan-1-yl)carbamate] | > 9.00 | 7.82 |  |  | 
16 | CC(C)(O)[C@H](F)CNC(=O)c1cnc(-c2ccc3cc(C#N)cnn23)cc1NC12CCC(NC(=O)OC3COC3)(CC1)CC2 [Example 279, (R)-oxetan-3-yl (4-((2-(3-cyanopyrrolo[1,2-b]pyridazin-7-yl)-5-((2-fluoro-3-hydroxy-3-methylbutyl)carbamoyl)pyridin-4-yl)amino)bicyclo[2.2.2]octan-1-yl)carbamate] | 8.70 | 7.54 |  |  | 
17 | COC(=O)[C@@H](C)NC(=O)c1cnc(-c2ccc3cc(C#N)cnn23)cc1NC12CCC(O)(CC1)CC2 [Example 340, methyl (6-(3-cyano-pyrrolo[1,2-b]pyridazin-7-yl)-4-((4-hydroxy-bicyclo[2.2.2]octan-1-yl)amino)nicotinoyl)-D-alaninate] | 9.00 | 6.86 |  |  | 
18 | CC(C)(O)[C@H](F)CNC(=O)c1cnc(-c2ccc3cc(C#N)cnn23)cc1Nc1ccc2[nH]ncc2c1 [Example 577, (R)-4-((1H-indazol-5-yl)amino)-6-(3-cyano-pyrrolo[1,2-b]pyridazin-7-yl)-N-(2-fluoro-3-hydroxy-3-methylbutyl) nicotinamide] |  | 7.52 | > 9.00 |  | 
19 | CC(C)(O)[C@H](F)CNC(=O)c1cnc(-c2ccc3cc(C#N)cnn23)cc1Nc1ccc(-c2cn[nH]c2)cc1 [Example 178, (R)-4-((4-(1H-pyrazol-4-yl)phenyl)amino)-6-(3-cyanopyrrolo[1,2-b]pyridazin-7-yl)-N-(2-fluoro-3-hydroxy-3-methylbutyl)nicotinamide] | > 9.00 | 8.00 |  |  | 
20 | CC(C)(O)[C@H](F)CNC(=O)c1cnc(-c2ccc3cc(C#N)cnn23)cc1N [Example 11, (R)-4-amino-6-(3-cyanopyrrolo[1,2-b]pyridazin-7-yl)-N-(2-fluoro-3-hydroxy-3-methylbutyl)nicotinamide] | 8.15 | 5.98 |  |  | 
21 | COC(=O)N1CCOC[C@H]1CNc1cc(-c2ccc3cc(C#N)cnn23)ncc1C(=O)NC[C@@H](F)C(C)(C)O [Example 918, (R)-methyl 3-(((2-(3-cyano-pyrrolo[1,2-b]pyridazin-7-yl)-5-(((R)-2-fluoro-3-hydroxy-3-methylbutyl)carbamoyl)pyridin-4-yl)amino)methyl)morpholine-4-carboxylate] | 7.51 |  |  | 6.38 | 
22 | N#Cc1cnn2c(-c3cc(N[C@H]4CC[C@H](N5CCOC5=O)CC4)c(C(=O)NCC(N)=O)cn3)ccc2c1 [Example 390, N-(2-amino-2-oxoethyl)-6-(3-cyanopyrrolo[1,2-b]pyridazin-7-yl)-4-(((1r,4r)-4-(2-oxooxazolidin-3-yl)cyclohexyl)amino) nicotinamide] | 8.22 | < 5.00 |  |  | 
23 | COC(=O)N1CC(CNC(=O)c2cnc(-c3ccc4cc(C#N)cnn34)cc2NC23CCC(O)(CC2)CC3)C1 [Example 744, methyl 3-((6-(3-cyano-pyrrolo[1,2-b]pyridazin-7-yl)-4-((4-hydroxy-bicyclo[2.2.2]octan-1-yl)amino)nicotinamido)methyl)azetidine-1-carboxylate] |  | 6.80 | 8.70 |  | 
24 | COC(=O)NC[C@H]1C[C@H](Nc2cc(-c3ccc4cc(C#N)cnn34)ncc2C(=O)NCC#N)C1 [Example 613, methyl (((1r,3r)-3-((5-((cyanomethyl)carbamoyl)-2-(3-cyanopyrrolo[1,2-b]pyridazin-7-yl)pyridin-4-yl)amino)cyclobutyl)methyl)carbamate] |  | 7.82 | > 9.00 |  | 
25 | N#Cc1cnn2c(-c3cc(NC45CCC(O)(CC4)CC5)c(C(=O)NC4(C(F)F)CC4)cn3)ccc2c1 [Example 951, 6-(3-cyanopyrrolo[1,2-b]pyridazin-7-yl)-N-(1-(difluoromethyl)cyclopropyl)-4-((4-hydroxybicyclo[2.2.2]octan-1-yl)amino) nicotinamide] | 8.70 |  |  | 6.80 | 
26 | CC(C)(O)[C@H](F)CNC(=O)c1cnc(-c2ccc3cc(C#N)cnn23)cc1Nc1cncc(OC(F)F)c1 [Example 217, (R)-6-(3-cyanopyrrolo[1,2-b]pyridazin-7-yl)-4-((5-(difluoromethoxy)pyridin-3-yl)amino)-N-(2-fluoro-3-hydroxy-3-methylbutyl)nicotinamide] | > 9.00 | 7.20 |  |  | 

— patent US10336762B2 (priority 2017, dated 2019)
